Results published in patent US8178658B2 (Dow AgroSciences, LLC, priority 2008, dated 2012).

Experiments:
[1] = test system: beet armyworm (BAW; Spodoptera exigua: Lepidoptera); test: 96-well microtiter plate-based high throughput (HTS) diet bioassay on beet armyworm (BAW HTS); type: in vivo; settings: BAW eggs, 12 μg test compound per well, mortality at 6 d post-treatment, mortality class
Protocol: (§1) Bioassays on beet armyworm (BAW; Spodoptera exigua: Lepidoptera) were conducted using either a 96-well microtiter plate-based high throughput (HTS) bioassay or a 128-well diet tray assay. The HTS assay is a based on a modification of Lewer et al. J. Nat. Prod. 2006, 69, 1506. BAW eggs of were placed on top of artificial diet (100 μl) in each well of 96-well microtiter plate. The diet was pretreated with test compounds (12 μg dissolved in 30 μL of DMSO-acetone-water mixture) layered on top of the diet using a liquid handling system and then allowed to dry for several hours. Infested plates were then covered with a layer of sterile cotton batting and the plate lid, and then held in the dark at 29° C. Mortality was recoded at 6 d post-treatment. Each plate had six replicates. The percent mortality was calculated from the average of the six replicates. In the case of the 128-well diet assay, three to five second instar BAW larvae were placed in each well (3 mL) of the diet tray that had been previously filled with 1 mL of artificial diet to which 50 μg/cm^2 of the test compound (dissolved in 50 μL of 90:10 acetone-water mixture) had been applied (to each of eight wells) and then allowed to dry. Trays were covered with a clear self-adhesive cover, and held at 25° C., 14:10 light-dark for six days. Percent mortality was recorded for the larvae in each well; activity in the eight wells was then averaged. In Table 7, under the BAW HTS or BAW 50 heading, an “A” means that the compound was tested and at least 50 percent mortality was observed whereas, “B” means that either (1) the compound was tested and less than 50 percent mortality was observed or (2) the compound was not tested.

[2] = test system: beet armyworm (BAW; Spodoptera exigua: Lepidoptera); test: 128-well diet tray assay on beet armyworm (BAW 50); type: in vivo; settings: 128-well diet tray assay, second instar BAW larvae, mortality class
Protocol: as §1

[3] = 96-well microtiter plate HTS diet assay
[4] = 50 μg/cm^2 of test compound on diet

| Compound | BAW HTS ([1]; 96-well HTS diet bioassay) | BAW HTS [1, 3] | BAW 50 ug/cm2 [2, 4] | pest or weed control at 12 µg/well, 12 µg/well ([1]; Spodoptera exigua, 144 h, 96-well microtiter plate HTS diet assay, read-out: BAW HTS) [%] | BAW 50 ug/cm2 ([2]; 50 μg/cm2 of test compound on diet) | pest or weed control at 50 µg/cm2, 50 µg/cm2 ([2]; Spodoptera exigua, 144 h, 50 μg/cm^2 of test compound on diet, read-out: BAW 50 ug/cm2) [%] |
| --- | --- | --- | --- | --- | --- | --- |
| COC1C(C)OC(ON=Cc2ccc(-c3ccn(-c4ccc(OC(F)(F)F)cc4)n3)cc2)C(OC)C1OC (stereo not shown) [Compound 12] | B (either (1) the compound was tested and less than 50 percent mortality was observed or (2) the compound was not tested) | B (either (1) the compound was tested and less than 50 percent mortality was observed or (2) the compound was not tested) | A (the compound was tested and at least 50 percent mortality was observed) | – | – | – |
| COC1C(C)OC(ON=Cc2ccc(C3=NN(c4ccc(OC(F)(F)F)cc4)CC3)cc2)C(OC)C1OC (stereo not shown) [Compound 15] | B (either (1) the compound was tested and less than 50 percent mortality was observed or (2) the compound was not tested) | B (either (1) the compound was tested and less than 50 percent mortality was observed or (2) the compound was not tested) | A (the compound was tested and at least 50 percent mortality was observed) | – | – | – |
| COC1C(C)OC(ON=Cc2ccc(-n3cnc(-c4ccc(Br)cc4)c3)cc2)C(OC)C1OC (stereo not shown) [Compound 16] | A (the compound was tested and at least 50 percent mortality was observed) | A (the compound was tested and at least 50 percent mortality was observed) | B (either (1) the compound was tested and less than 50 percent mortality was observed or (2) the compound was not tested) | – | – | – |
| COC1C(C)OC(ON=Cc2ccc(-c3cn(-c4cccc(Cl)c4C#N)cn3)cc2)C(OC)C1OC (stereo not shown) [Compound 17] | A (the compound was tested and at least 50 percent mortality was observed) | A (the compound was tested and at least 50 percent mortality was observed) | B (either (1) the compound was tested and less than 50 percent mortality was observed or (2) the compound was not tested) | – | – | – |
| COC1C(C)OC(ON=Cc2ccccc2-c2cn(-c3ccc(OC(F)(F)F)cc3)cn2)C(OC)C1OC (stereo not shown) [Compound 19] | B (either (1) the compound was tested and less than 50 percent mortality was observed or (2) the compound was not tested) | B (either (1) the compound was tested and less than 50 percent mortality was observed or (2) the compound was not tested) | B (either (1) the compound was tested and less than 50 percent mortality was observed or (2) the compound was not tested) | – | – | – |
| COC1C(C)OC(ON=Cc2c(F)ccc(-c3cn(-c4ccc(OC(F)(F)F)cc4)cn3)c2F)C(OC)C1OC (stereo not shown) [Compound 21] | A (the compound was tested and at least 50 percent mortality was observed) | A (the compound was tested and at least 50 percent mortality was observed) | B (either (1) the compound was tested and less than 50 percent mortality was observed or (2) the compound was not tested) | – | – | – |
| COC1C(C)OC(ON=Cc2ccc(-c3cn(-c4cccc(F)n4)cn3)cc2)C(OC)C1OC (stereo not shown) [Compound 22] | B (either (1) the compound was tested and less than 50 percent mortality was observed or (2) the compound was not tested) | B (either (1) the compound was tested and less than 50 percent mortality was observed or (2) the compound was not tested) | B (either (1) the compound was tested and less than 50 percent mortality was observed or (2) the compound was not tested) | – | – | – |
| COC1C(C)OC(ON=Cc2ccc(-c3cn(-c4cc(I)ccn4)cn3)cc2)C(OC)C1OC (stereo not shown) [Compound 23] | B (either (1) the compound was tested and less than 50 percent mortality was observed or (2) the compound was not tested) | B (either (1) the compound was tested and less than 50 percent mortality was observed or (2) the compound was not tested) | B (either (1) the compound was tested and less than 50 percent mortality was observed or (2) the compound was not tested) | – | – | – |
| COC1C(C)OC(ON=Cc2ccc(-c3cn(-c4cc(F)cc(F)c4)cn3)cc2)C(OC)C1OC (stereo not shown) [Compound 24] | A (the compound was tested and at least 50 percent mortality was observed) | A (the compound was tested and at least 50 percent mortality was observed) | B (either (1) the compound was tested and less than 50 percent mortality was observed or (2) the compound was not tested) | – | – | – |
| COc1ccc(-c2cn(-c3ccc(OC(F)(F)F)cc3)cn2)cc1C=NOC1OC(C)C(OC)C(OC)C1OC (stereo not shown) [Compound 25] | B (either (1) the compound was tested and less than 50 percent mortality was observed or (2) the compound was not tested) | B (either (1) the compound was tested and less than 50 percent mortality was observed or (2) the compound was not tested) | B (either (1) the compound was tested and less than 50 percent mortality was observed or (2) the compound was not tested) | – | – | – |
| CO[C@@H]1[C@@H](OC)[C@H](C)O[C@@H](O/N=C/c2ccc(-c3cn(-c4ccc(OC(F)(F)F)cc4)cn3)cc2)[C@@H]1OC [Compound 26, 4-[1-(4-Trifluoromethoxyphenyl)-1H-imidazol-4-yl]-benzaldehyde O-((2S,3R,4R,5S,6S)-3,4,5-trimethoxy-6-methyl-tetrahydropyran-2-yl)-oxime] | A (the compound was tested and at least 50 percent mortality was observed) | – | – | > 50 | A (the compound was tested and at least 50 percent mortality was observed) | > 50 |
| CCCc1ccc(-n2cnc(-c3ccc(C=NOC4OC(C)C(OC)C(OC)C4OC)cc3)c2)cc1 (stereo not shown) [Compound 27] | A (the compound was tested and at least 50 percent mortality was observed) | A (the compound was tested and at least 50 percent mortality was observed) | A (the compound was tested and at least 50 percent mortality was observed) | – | – | – |
| CCCc1ccc(-n2cnc(-c3ccc(/C=N/O[C@@H]4O[C@@H](C)[C@H](OC)[C@@H](OCC)[C@H]4OC)cc3)c2)cc1 [Compound 29] | B (either (1) the compound was tested and less than 50 percent mortality was observed or (2) the compound was not tested) | B (either (1) the compound was tested and less than 50 percent mortality was observed or (2) the compound was not tested) | A (the compound was tested and at least 50 percent mortality was observed) | – | – | – |
| COC1C(C)OC(ON=Cc2ccc(-c3cn(-c4ccc(OC(F)(F)F)cc4)cn3)cc2)C(OC)C1OC (stereo not shown) [Compound 30] | A (the compound was tested and at least 50 percent mortality was observed) | A (the compound was tested and at least 50 percent mortality was observed) | A (the compound was tested and at least 50 percent mortality was observed) | – | – | – |
| COC1C(C)OC(ON=Cc2ccc(-c3cn(-c4ccc(C(F)(F)F)cn4)cn3)cc2)C(OC)C1OC (stereo not shown) [Compound 32] | A (the compound was tested and at least 50 percent mortality was observed) | A (the compound was tested and at least 50 percent mortality was observed) | A (the compound was tested and at least 50 percent mortality was observed) | – | – | – |
| CCOC1C(C)OC(ON=Cc2ccc(-c3cn(-c4ccc(C(F)(F)F)cn4)cn3)cc2)C(OCC)C1OCC (stereo not shown) [Compound 33] | A (the compound was tested and at least 50 percent mortality was observed) | A (the compound was tested and at least 50 percent mortality was observed) | A (the compound was tested and at least 50 percent mortality was observed) | – | – | – |
| COC1C(C)OC(ON=Cc2ccc(-c3cn(-c4cc(Br)ccc4Cl)cn3)cc2)C(OC)C1OC (stereo not shown) [Compound 34] | B (either (1) the compound was tested and less than 50 percent mortality was observed or (2) the compound was not tested) | B (either (1) the compound was tested and less than 50 percent mortality was observed or (2) the compound was not tested) | A (the compound was tested and at least 50 percent mortality was observed) | – | – | – |
